Laboratory results: US20100062995A1, “Transition state structure of human 5'methylthioadenosine phosphorylase” (priority 2006, published 2010)
“And” between values parts separate entries of the source, which are not always exact repeats. Identical values can stand only once. Marks after values point to notes of the source that are not given here. Blank lines part the entries; values can stand above or below the compound they belong to.

Assays:
human MTAP [1] = target: T1, human MTAP (Homo sapiens, UniProt Q13126); experiment: Measurement of kinetic isotope effects on arsenolysis of MTA; type: biochemical; settings: pH 7.5, arsenolysis of MTA; for KIE (experimental): corrected to 0% substrate depletion; for Intrinsic KIEs: observed KIE corrected for forward commitment
T1 construct: His6 (N); made in house; host or cells: E. coli (pQE32 vector)
T1 sequence (Q13126 1-283): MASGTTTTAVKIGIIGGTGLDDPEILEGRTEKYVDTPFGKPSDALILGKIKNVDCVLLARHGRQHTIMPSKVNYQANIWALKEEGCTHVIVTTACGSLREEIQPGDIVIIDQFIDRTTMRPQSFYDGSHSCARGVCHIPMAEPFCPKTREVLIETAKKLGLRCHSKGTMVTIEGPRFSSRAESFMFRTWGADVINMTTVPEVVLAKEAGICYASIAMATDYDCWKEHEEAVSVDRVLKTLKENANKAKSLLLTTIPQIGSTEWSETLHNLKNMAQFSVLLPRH
Description: Measurement of kinetic isotope effects. The KIEs were measured by mixing ^3H and ^14C labeled substrates with ^3H:^14C in 4:1 ratio. […] After 20-30% completion of the reaction, 750 μL of the reaction was resolved on charcoal-Sepharose (acid-washed powdered charcoal and Sepharose in 1:4 ratio made into a slurry in 1 mM 5-methylthioribose (MTR) and settled in Pasteur pipettes). The remainder of the reaction mixture was allowed to react to completion and then applied to the column. Columns were washed with 2 volumes of 1 mM MTR and radioactive methylthioribose was eluted with 6 volumes of 15 mM MTR containing 50% ethanol. Each 1.0 mL of eluate was mixed with 9.0 mL scintillation fluid and counted for at least 3 cycles at 10 minutes per cycle. The ^3H to ^14C ratio was determined for partial and complete reactions and the KIEs were corrected to 0% hydrolysis by the equation: […]
where f is the fraction of reaction progress and Rf and Ro are ratios of heavy to light isotope at partial and total completion of reaction, respectively.
Experimental kinetic isotope effects (KIEs) and commitment factors. […] To avoid kinetic complexity associated with the transition state analyses for reversible reactions, the KIEs for the human MTAP were measured on the physiologically irreversible reaction of arsenolysis. The products of arsenolysis are adenine and 5-methylthioribose 1-arsenate. Methylthioribose 1-arsenate is unstable and rapidly decomposes to form methylthioribose and arsenate.
Where ^T(V/K) is an observed tritium isotope effect, Cf is the forward commitment to catalysis. The intrinsic KIEs were obtained by correcting the observed KIEs (column 3, Table 1) for the forward commitment.

S. pneumoniae MTAN = S. pneumoniae MTAN (Streptococcus pneumoniae, UniProt Q8DQ16); settings: S. pneumoniae MTAN (Singh et al., 2005a); cited from earlier work
S. pneumoniae MTAN, sequence (Q8DQ16 entry or part of it): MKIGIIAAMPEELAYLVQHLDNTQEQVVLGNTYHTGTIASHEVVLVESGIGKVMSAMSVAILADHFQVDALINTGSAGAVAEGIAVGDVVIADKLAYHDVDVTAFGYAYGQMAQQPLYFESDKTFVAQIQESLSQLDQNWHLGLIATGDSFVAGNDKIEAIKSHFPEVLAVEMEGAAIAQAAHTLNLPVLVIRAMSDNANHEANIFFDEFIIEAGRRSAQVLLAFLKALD

E. coli MTAN = E. coli MTAN (Escherichia coli, UniProt P0AF12); settings: E. coli MTAN (Singh et al., 2005a); cited from earlier work
human MTAP [2] = target: T1, human MTAP; experiment: Kinetic analysis with substrate analogues (kcat, Km); type: biochemical
Excerpt: Kinetic analysis with substrate analogues provide additional evidence concerning the importance of the 3′-hydroxyl in catalysis (Kung et al., 2005). […] The formation of an oxyanion from ionization of the 3′-hydroxyl further stabilizes the positive charge at the anomeric carbon.

human MTAP [3] = target: T1, human MTAP; settings: cited from earlier work; for kcat: human MTAP (Kung et al., 2005); for fold increase in Km relative to MTA: human MTAP

SMILES: [3H][C@]1(CSC)O[C@@H](n2cnc3c(N)ncnc32)[C@H](O)[C@@H]1O [[4′-^3H], [4′-^3H]MTA]
- intrinsic 4′-^3H KIE (S. pneumoniae MTAN): 1.015
- KIE (experimental) (human MTAP [1]): 1.037 ± 0.005
- Intrinsic KIEs (human MTAP [1]): 1.045 ± 0.005
- Intrinsic KIEs (human MTAP [1]; listed as 4′-^3H): 1.045
- intrinsic 4′-^3H KIE (E. coli MTAN): 1.010

SMILES: CSC[C@@H]1C[C@@H](O)[C@H](n2cnc3c(N)ncnc32)O1 [3′-deoxy MTA]
- fold decrease in kcat relative to MTA (human MTAP [2]): ~1000 fold
- kcat (human MTAP [3]): 0.004 s⁻¹
- fold increase in Km relative to MTA (human MTAP [3]): ~2 fold

SMILES: CSC[C@H]1O[14C@@H](n2cnc3c(N)ncnc32)[C@H](O)[C@@H]1O [[1′-^14C], [1′-^14C]MTA]
- KIE (experimental) (human MTAP [1]): 1.025 ± 0.005^b
- Intrinsic KIEs (human MTAP [1]): 1.030 ± 0.005
- Intrinsic KIEs (human MTAP [1]; listed as 1′-^14C): 1.029
- Intrinsic KIEs (human MTAP [1]; listed as 1′-^14C MTA): 1.029

SMILES: CSC[C@H]1O[C@@H](n2cnc3c(N)ncnc32)C[C@@H]1O [2′-deoxy MTA]
- kcat (human MTAP [3]): 0.28 s⁻¹
- fold increase in Km relative to MTA (human MTAP [3]): ~2 fold

Now from value to compound:

- KIE (experimental) (human MTAP [1]): 1.038 ± 0.001
- Intrinsic KIEs (human MTAP [1]): 1.046 ± 0.001
- Intrinsic KIEs (human MTAP [1]; listed as [5′-^3H2] MTA): 1.046
SMILES: [3H]C([3H])(SC)[C@H]1O[C@@H](n2cnc3c(N)ncnc32)[C@H](O)[C@@H]1O [[5′-^3H], [5′-^3H]MTA]

- KIE (experimental) (human MTAP [1]): 1.031 ± 0.002^c
- Intrinsic KIEs (human MTAP [1]): 1.037 ± 0.002
- Intrinsic KIEs (human MTAP [1]; listed as 9-^15N): 1.037 and 1.036
- Intrinsic KIEs (human MTAP [1]; listed as 9-^15N MTA): 1.037
- Intrinsic KIEs (human MTAP [1]; listed as 15N9): 1.036
SMILES: CS[14CH2][C@H]1O[C@@H]([15n]2cnc3c(N)ncnc32)[C@H](O)[C@@H]1O [[9-^15N/5′-^14C]]

- KIE (experimental) (human MTAP [1]): 1.063 ± 0.003
- Intrinsic KIEs (human MTAP [1]): 1.076 ± 0.003
- Intrinsic KIEs (human MTAP [1]; listed as 2′-^3H): 1.076
SMILES: [3H][C@@]1(O)[C@H](O)[C@@H](CSC)O[C@H]1n1cnc2c(N)ncnc21 [[2′-^3H], [2′-^3H]MTA]

- KIE (experimental) (human MTAP [1]): 1.073 ± 0.002
- Intrinsic KIEs (human MTAP [1]): 1.086 ± 0.002
- Intrinsic KIEs (human MTAP [1]; listed as [Me-^3H3] MTA): 1.086
SMILES: [3H]C([3H])([3H])SC[C@H]1O[C@@H](n2cnc3c(N)ncnc32)[C@H](O)[C@@H]1O [[Me-^3H], [methyl-^3H3]MTA]

- KIE (experimental) (human MTAP [1]): 1.290 ± 0.003
- Intrinsic KIEs (human MTAP [1]): 1.350 ± 0.003
- Intrinsic KIEs (human MTAP [1]; listed as 1′-^3H): 1.35
SMILES: [3H]C1(n2cnc3c(N)ncnc32)OC(CSC)C(O)C1O (stereo not shown) [[1′-^3H], [1′-^3H]MTA]
